Numbers after ± are expanded uncertainties.
Details: 101.33 kPa, Liquid, Vibrating tube method

| Compound | mass density (288.15 K) [kg/m3] | mass density (293.15 K) [kg/m3] | mass density (298.15 K) [kg/m3] | mass density (303.15 K) [kg/m3] | mass density (308.15 K) [kg/m3] | mass density (313.15 K) [kg/m3] | mass density (318.15 K) [kg/m3] | mass density (323.15 K) [kg/m3] | mass density (328.15 K) [kg/m3] | mass density (333.15 K) [kg/m3] | mass density (338.15 K) [kg/m3] | mass density (343.15 K) [kg/m3] | mass density (348.15 K) [kg/m3] | mass density (353.15 K) [kg/m3] |
| --- | --- | --- | --- | --- | --- | --- | --- | --- | --- | --- | --- | --- | --- | --- |
| CCCCCCCCn1cc[n+](C)c1.O=S(=O)([N-]S(=O)(=O)C(F)(F)F)C(F)(F)F | 1329.44 ± 0.54 | 1324.99 ± 0.54 | 1320.54 ± 0.53 | 1316.08 ± 0.53 | 1311.64 ± 0.53 | 1307.23 ± 0.52 | 1302.82 ± 0.52 | 1298.45 ± 0.52 | 1294.08 ± 0.51 | 1289.73 ± 0.51 | 1285.38 ± 0.51 | 1281.05 ± 0.5 | 1276.72 ± 0.5 | 1272.41 ± 0.5 |
| CCCC(=O)[O-].C[NH2+]CCO [N-methyl-2-hydroxyethylammonium butanoate] |  | 1038.03 ± 0.93 |  | 1031.04 ± 0.91 |  | 1024.03 ± 0.9 |  | 1016.9 ± 0.88 |  | 1009.68 ± 0.87 |  | 1002.38 ± 0.86 |  | 994.97 ± 0.84 |
| CCCCCCCCn1cc[n+](C)c1.O=S(=O)([O-])C(F)(F)F [1-octyl-3-methylimidazolium trifluoromethanesulfonate] | 1200.83 ± 0.44 | 1197.12 ± 0.44 | 1193.39 ± 0.43 | 1189.64 ± 0.43 | 1185.9 ± 0.43 | 1182.17 ± 0.43 | 1178.44 ± 0.42 | 1174.72 ± 0.42 | 1171.02 ± 0.42 | 1167.34 ± 0.42 | 1163.66 ± 0.41 | 1159.99 ± 0.41 | 1156.33 ± 0.41 | 1152.68 ± 0.41 |
| CC(=O)[O-].C[NH2+]CCO [N-methyl-2-hydroxyethylammonium acetate] |  | 1099.6 ± 1.1 |  | 1093 ± 1 |  | 1086.4 ± 1 |  | 1079.7 ± 1 |  | 1072.9 ± 1 |  | 1066.1 ± 1 |  | 1059.1 ± 1 |
| CCCC[n+]1ccn(C)c1.O=S(=O)([N-]S(=O)(=O)C(F)(F)F)C(F)(F)F | 1443.95 ± 4 | 1439.13 ± 4 | 1434.32 ± 4 | 1429.51 ± 4 | 1424.73 ± 4 | 1419.98 ± 4 | 1415.23 ± 4 | 1410.5 ± 4 | 1405.78 ± 4 | 1401.09 ± 4 | 1396.41 ± 4 | 1391.74 ± 4 | 1387.07 ± 4 | 1382.43 ± 4 |
| CCCCCCCCCCCCn1cc[n+](C)c1.O=S(=O)([N-]S(=O)(=O)C(F)(F)F)C(F)(F)F | 1238.73 ± 1.4 | 1234.45 ± 1.4 | 1230.2 ± 1.4 | 1225.93 ± 1.3 | 1221.7 ± 1.3 | 1217.48 ± 1.3 | 1213.28 ± 1.3 | 1209.09 ± 1.3 | 1204.95 ± 1.3 | 1200.8 ± 1.3 | 1196.67 ± 1.3 | 1192.54 ± 1.3 | 1188.43 ± 1.3 | 1184.33 ± 1.2 |
| CCC(=O)[O-].C[NH2+]CCO [2-hydroxy-N-methylethanaminium propionate] |  | 1068.13 ± 0.99 |  | 1061.16 ± 0.97 |  | 1054.19 ± 0.96 |  | 1047.12 ± 0.94 |  | 1039.96 ± 0.93 |  | 1032.71 ± 0.92 |  | 1025.34 ± 0.9 |
| CCCC[n+]1ccccc1.O=S(=O)([N-]S(=O)(=O)C(F)(F)F)C(F)(F)F [1-butylpyridinium bis[(trifluoromethyl)sulfonyl]imide] | 1457.74 ± 1.9 | 1452.97 ± 1.9 | 1448.23 ± 1.9 | 1443.6 ± 1.9 | 1438.91 ± 1.9 | 1434.25 ± 1.9 | 1429.62 ± 1.9 | 1425 ± 1.9 | 1420.41 ± 1.8 | 1415.82 ± 1.8 | 1411.23 ± 1.8 | 1406.74 ± 1.8 | 1402.15 ± 1.8 | 1397.61 ± 1.8 |

— the NIST ThermoML archive (doi:10.1021/acs.jced.5b00592)
